In patent publication US20040077650A1, “Cannabinoid receptor ligands and uses thereof” (Pfizer Inc., priority 2002, published 2004):

Target: T1, CB-1 receptor (Rattus norvegicus, UniProt P20272)
T1 construct: tissue Pel Freeze Biologicals, Rogers, Ark; host or cells: rat brain membrane homogenate
Experiment: CB-1 receptor binding assay ([3H]SR141716A displacement)
Conditions: inhibition of [3H] SR141716A binding, rat brain tissue, 20° C. for 60 minutes
Procedure: The following assays were designed to detect compounds that inhibit the binding of [3H] SR141716A (selective CB-1 radiolabeled ligand) and [3H] 5-(1,1-dimethyl-heptyl)-2-[5-hydroxy-2-(3-hydroxy-propyl)-cyclohexyl]-phenol (CB-1/CB-2 radiolabeled ligand) to their respective receptors.
PelFreeze brains (available from Pel Freeze Biologicals, Rogers, Ark.) were cut up and placed in tissue preparation buffer (5 mM Tris HCl, pH=7.4 and 2 mM EDTA), polytroned at high speed and kept on ice for 15 minutes. The homogenate was then spun at 1,000×g for 5 minutes at 4° C. The supernatant was recovered and centrifuged at 100,000×G for 1 hour at 4° C. The pellet was then re-suspended in 25 ml of TME ([…] Tris, pH=7.4, 5 mM MgCl2, and 1 mM EDTA) per brain used. A protein assay was performed and 200 μl of tissue totaling 20 μg was added to the assay.
The test compounds were diluted in drug buffer (0.5% BSA, 10% DMSO and TME) and then 25 μl were added to a deep well polypropylene plate. [3H] SR141716A was diluted in a ligand buffer (0.5% BSA plus TME) and 25 μl were added to the plate. A BCA protein assay was used to determine the appropriate tissue concentration and then 200 μl of rat brain tissue at the appropriate concentration was added to the plate. […] In the morning the filters were counted on a Wallac Betaplate™ counter (available from PerkinElmer Life Sciences™, Boston, Mass.).

T1 sequence (P20272 whole entry): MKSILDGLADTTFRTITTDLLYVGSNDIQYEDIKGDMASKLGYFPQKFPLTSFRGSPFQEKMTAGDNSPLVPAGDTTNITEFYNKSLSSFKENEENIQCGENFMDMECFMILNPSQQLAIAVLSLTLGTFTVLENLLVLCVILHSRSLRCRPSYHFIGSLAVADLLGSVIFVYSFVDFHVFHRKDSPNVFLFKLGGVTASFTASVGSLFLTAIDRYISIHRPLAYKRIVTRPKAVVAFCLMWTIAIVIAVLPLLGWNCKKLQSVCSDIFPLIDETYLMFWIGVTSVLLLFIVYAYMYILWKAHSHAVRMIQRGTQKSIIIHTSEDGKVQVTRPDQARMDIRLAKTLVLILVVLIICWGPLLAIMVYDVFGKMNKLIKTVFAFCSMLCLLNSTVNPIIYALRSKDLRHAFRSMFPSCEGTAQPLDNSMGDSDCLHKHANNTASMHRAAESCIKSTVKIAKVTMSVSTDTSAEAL

For `Cc1c(-c2ncn(C)c2-c2ccccc2)nn(-c2ccccc2Cl)c1-c1ccc(Cl)cc1` [Example 1B-13, 5-(4-Chloro-phenyl)-1-(2-chloro-phenyl)-4-methyl-3-(1-methyl-5-phenyl-1H-imidazol-4-yl)-1H-pyrazole], the binding affinity was 371 nM.
